Reference: patent publication US20210253598A1, “ARYL ANNULATED MACROCYCLIC INDOLE DERIVATIVES” (priority 2017, published 2021)
Structures can show the parent of a compound that is named as a salt. Where two headings read alike, the source gives them in different places.

What was measured:
[1] = molecular target: MCL-1 (Homo sapiens, UniProt Q07820, K194A/K197A/R201A); assay: Protein-protein interaction assay MCL-1/Noxa BH3 peptide, TR-FRET (MCL-1 assay, Assay 1); assay type: binding; details: MCL-1 Assay [M] (median), MBP-MCL-1 / Noxa BH3 peptide
Outline: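 TR-FRET competition between compounds and a biotin-PEG Noxa BH3 tracer for 1 nM MBP-MCL-1 (residues 173-321). Incubation was 1 h at 22 °C in the dark, then overnight at 4 °C, in 50 mM Tris pH 7 buffer with KF and DTT, after a 10-min compound pre-equilibration. Normalized ratios were fitted with a 4-parameter Hill equation to give IC50.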

[2] = system: SUDHL5; assay: Induction of caspase-3/7 activity in SUDHL5 cells (Assay 4); assay type: cell-based; details: Homo sapiens, SU-DHL-5, 3 h
Outline: (§1)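 Luminescent Caspase-Glo 3/7 read-out in SUDHL5 and SUDHL10 cells after 3 h compound exposure at 37 °C, followed by 1 h reagent incubation.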

[3] = system: SUDHL10; assay: Induction of caspase-3/7 activity in SUDHL10 cells (Assay 4); assay type: cell-based; details: Homo sapiens, SU-DHL10, 3 h
Outline: as §1

[4] = system: SUDHL5; assay: Induction of cytotoxicity in SUDHL5 cells, CellTiter-Glo (Assay 6); assay type: cell-based; details: SUDHL5, 5 hours incubation, median, read-out: Cytotox SUDHL5 [M] (median)
Outline: (§2)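 Short-exposure cytotoxicity: 5 h compound, 37° C, humidified; CellTiter-Glo luminescence; cell-free medium control; edge wells omitted.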

[5] = system: SUDHL10; assay: Induction of cytotoxicity in SUDHL10 cells, CellTiter-Glo (Assay 6); assay type: cell-based; details: SUDHL10, 5 hours incubation, median, read-out: Cytotox SUDHL10 [M] (median)
Outline: as §2

[6] = system: SUDHL5; assay: Anti-proliferative effect in SUDHL5 cells, CellTiter-Glo (Assay 7); assay type: cell-based; details: Homo sapiens, SU-DHL-5, 72 h
Protocol: (§3) Assessment of the Anti-Proliferative Effect of Compounds in Different Cell Lines
(§4) The impact of compounds on the proliferation of different cell lines was assessed using the CellTiter-Glo® Luminescent Cell Viability reagent from Promega (G7573).
(§5) In parallel, cells were plated in a reference (day 0) plate for time zero determination. Cells were incubated in a humidified incubator at 37° C. overnight.
(§6) Rim wells were excluded. The cells were incubated for 72 hours in a humidified incubator at 37° C. The day 0 plate was measured by adding 30 μL/well of CTG solution (CellTiter-Glo® Luminescent Cell Viability reagent, Promega G7573) to time zero wells in the reference plate followed by a 10 minutes incubation and luminescence reading at 0.1 ms. using the PHERAstar FS microplate reader (BMG Labtech).
(§7) After 72 hours incubation, the treated plates were measured in the same way as the day 0 plate mentioned above. The Bella DRC Master Sheet was used to calculate IC50s, with CI=day 0 values and C0=DMSO control values.

[7] = system: MV-4-11; assay: Anti-proliferative effect in MV-4-11 cells, CellTiter-Glo (Assay 7); assay type: cell-based; details: Homo sapiens, MV4-11, 72 h, several values per example
Protocol: as §3, §4, §5, §6, §7

[8] = system: A2780; assay: Anti-proliferative effect in A2780 cells, CellTiter-Glo (Assay 7); assay type: cell-based; details: Homo sapiens, A2780, 72 h, several values per example
Protocol: as §3, §4, §5, §6, §7

[9] = system: AMO-1; assay: Anti-proliferative effect in AMO-1 cells, CellTiter-Glo (Assay 7); assay type: cell-based; details: Homo sapiens, AMO1, 72 h, AMO-1, 72 hours incubation, CellTiter-Glo; several values per example; read-out: Antiproli AMO-1
Protocol: as §3, §4, §5, §6, §7

[10] = SUDHL5, 3 hours treatment, Caspase-Glo 3/7, median, read-out: Caspase SUDHL5 [M] (median)
[11] = SUDHL10, 3 hours treatment, Caspase-Glo 3/7, median, read-out: Caspase SUDHL10 [M] (median)
[12] = SUDHL5, 72 hours incubation, CellTiter-Glo, median, read-out: Antiproli SUDHL5 [M] (median)
[13] = MV-4-11, 72 hours incubation, CellTiter-Glo, read-out: Antiproli MV-4-11
[14] = A2780, 72 hours incubation, CellTiter-Glo, read-out: Antiproli A2780

Chain of MCL-1 (Q07820 173-321 K194A/K197A/R201A, looked up): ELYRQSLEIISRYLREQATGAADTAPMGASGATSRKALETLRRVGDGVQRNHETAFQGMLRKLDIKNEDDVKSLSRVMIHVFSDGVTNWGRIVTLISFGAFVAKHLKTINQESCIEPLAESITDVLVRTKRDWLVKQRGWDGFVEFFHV

SMILES | EC50 [2, 10] | EC50 [3, 11] | IC50 [6, 12] | IC50 [7, 13] | IC50 [8, 14] | IC50 [1] | IC50 ([4]; Homo sapiens, SU-DHL-5, 5 h) | IC50 ([5]; Homo sapiens, SU-DHL10, 5 h) | IC50 [9] | IC50 [4] | IC50 [5] | EC50 ([2]; read-out: Caspase SUDHL5 [M] (median), SUDHL5, 3 hours treatment, Caspase-Glo 3/7) | EC50 ([3]; read-out: Caspase SUDHL10 [M] (median), SUDHL10, 3 hours treatment, Caspase-Glo 3/7) | IC50 ([6]; read-out: Antiproli SUDHL5 [M] (median), SUDHL5, 72 hours incubation, CellTiter-Glo) | IC50 ([7]; read-out: Antiproli MV-4-11 [M], MV-4-11, 72 hours incubation, CellTiter-Glo) | IC50 ([8]; read-out: Antiproli A2780 [M], A2780, 72 hours incubation, CellTiter-Glo)
Cc1c2c(nn1C)CN(S(=O)(=O)CCN1CCOCC1)Cc1ccccc1Cn1c(C(=O)O)c(CCCOc3cccc4ccccc34)c3cccc-2c31 (racemic) [Example 30, (rac)-4,5-Dimethyl-8-{[2-(morpholin-4-yl)ethyl]sulfonyl}-17-[3-(naphthalen-1-yloxy)propyl]-7,8,9,14-tetrahydro-5H-indolo[1,7-bc]pyrazolo[4,3-e][2,8]benzodiazacycloundecine-16-carboxylic Acid] | 8.5e-06 M | > 3.3e-05 M | 4.6e-06 M | 7.85e-06 M | 1.71e-05 M | 3.7e-08 M | 8.6e-06 M | 2.9e-05 M | – | – | – | – | – | – | – | –
Cc1c2c(nn1C)COCc1ccccc1Cn1c(C(=O)O)c(CCCOc3cccc4ccccc34)c3ccc(Cl)c-2c31 (racemic) [Example 36, (rac)-3-Chloro-4,5-dimethyl-17-[3-(naphthalen-1-yloxy)propyl]-5,7,9,14-tetrahydroindolo[7,1-fg]pyrazolo[3,4-d][2,8]benzoxazacycloundecine-16-carboxylic Acid] | 2.4e-06 M | 5.5e-06 M | 3.6e-06 M | 1.38e-06 M | 2.31e-05 M | 3.2e-09 M | 3.8e-06 M | 4.9e-06 M | – | – | – | – | – | – | – | –
Cc1c2c(nn1C)COCc1cccnc1Cn1c(C(=O)O)c(CCCOc3cccc4ccccc34)c3ccc(Cl)c-2c31 (racemic) [Example 39, (rac)-3-Chloro-4,5-dimethyl-17-[3-(naphthalen-1-yloxy)propyl]-5,7,9,14-tetrahydropyrazolo-[4′,3′:9,10]pyrido[3′,2′:3,4][1,6]oxazacycloundecino[8,7,6-hi]indole-16-carboxylic Acid] | 3.7e-06 M | 5.7e-06 M | 2.4e-06 M | 1.56e-05 M | > 3.3e-05 M | 1.6e-09 M | 3.3e-06 M | 6.7e-06 M | – | – | – | – | – | – | – | –
Cc1c2c(nn1C)CN(C)Cc1ccccc1Cn1c(C(=O)O)c(CCCOc3cccc4ccccc34)c3cccc-2c31 (single isomer, unassigned; enantiomer 2) [Example 16, 4,5,8-Trimethyl-17-[3-(naphthalen-1-yloxy)propyl]-7,8,9,14-tetrahydro-5H-indolo[1,7-bc]pyrazolo[4,3-e][2,8]benzodiazacycloundecine-16-carboxylic Acid (Enantiomer 2)] | 2.4e-05 M | > 3.3e-05 M | – | 1.15e-05 M | – | 1.1e-07 M | – | – | 20.3 µM | 2.4e-05 M | 3e-05 M | – | – | – | – | –
Cc1c2c(nn1C)COCc1ncccc1Cn1c(C(=O)O)c(CCCOc3cccc4ccccc34)c3ccc(Cl)c-2c31 (single isomer, unassigned; enantiomer 2) [Example 44, 3-Chloro-4,5-dimethyl-17-[3-(naphthalen-1-yloxy)propyl]-5,7,9,14-tetrahydropyrazolo-[4′,3′:9,10]pyrido[2′,3′:3,4][1,6]oxazacycloundecino[8,7,6-hi]indole-16-carboxylic acid-N-ethylethanamine Salt (Enantiomer 2)] | – | – | – | – | – | 5.2e-09 M | 7.9e-06 M | 1.5e-05 M | – | – | – | 7.8e-06 M | 1.5e-05 M | 5.7e-06 M | 1.54e-05 M | 2.37e-05 M

Now from value to compound, other results behind:

EC50 [2, 10] | EC50 [3, 11] | IC50 [6, 12] | IC50 [7, 13] | IC50 [8, 14] | SMILES | IC50 [1] | IC50 ([4]; Homo sapiens, SU-DHL-5, 5 h) | IC50 ([5]; Homo sapiens, SU-DHL10, 5 h) | IC50 [9] | IC50 [4] | IC50 [5] | EC50 ([2]; read-out: Caspase SUDHL5 [M] (median), SUDHL5, 3 hours treatment, Caspase-Glo 3/7) | EC50 ([3]; read-out: Caspase SUDHL10 [M] (median), SUDHL10, 3 hours treatment, Caspase-Glo 3/7) | IC50 ([6]; read-out: Antiproli SUDHL5 [M] (median), SUDHL5, 72 hours incubation, CellTiter-Glo) | IC50 ([7]; read-out: Antiproli MV-4-11 [M], MV-4-11, 72 hours incubation, CellTiter-Glo) | IC50 ([8]; read-out: Antiproli A2780 [M], A2780, 72 hours incubation, CellTiter-Glo)
> 3.3e-05 M | > 3.3e-05 M | > 3.3e-05 M | > 3.3e-05 M | > 3.3e-05 M | Cc1c2c(nn1C)CN(C(=O)NC1CCOCC1)Cc1ccccc1Cn1c(C(=O)O)c(CCCOc3cccc4ccccc34)c3cccc-2c31 (racemic) [Example 24, (rac)-4,5-Dimethyl-17-[3-(naphthalen-1-yloxy)propyl]-8-(tetrahydro-2H-pyran-4-ylcarbamoyl)-7,8,9,14-tetrahydro-5H-indolo[1,7-bc]pyrazolo[4,3-e][2,8]benzodiazacycloundecine-16-carboxylic Acid] | 5.3e-08 M | > 3.3e-05 M | > 3.3e-05 M | – | – | – | – | – | – | – | –
> 3.3e-05 M | > 3.3e-05 M | 2.7e-05 M | 2.48e-05 M | 3.14e-05 M | Cc1c2c(nn1C)CN(C(=O)NCC1CCOCC1)Cc1ccccc1Cn1c(C(=O)O)c(CCCOc3cccc4ccccc34)c3cccc-2c31 (racemic) [Example 27, (rac)-4,5-Dimethyl-17-[3-(naphthalen-1-yloxy)propyl]-8-[(tetrahydro-2H-pyran-4-ylmethyl)-carbamoyl]-7,8,9,14-tetrahydro-5H-indolo[1,7-bc]pyrazolo[4,3-e][2,8]benzodiazacycloundecine-16-carboxylic Acid] | 3.1e-08 M | > 3.3e-05 M | > 3.3e-05 M | – | – | – | – | – | – | – | –
2.2e-06 M | 7.9e-06 M | – | 1.19e-05 M | – | Cc1c2c(nn1C)COCc1nccnc1Cn1c(C(=O)O)c(CCCOc3cccc4ccccc34)c3ccc(Cl)c-2c31 (racemic) [Example 45, (rac)-3-Chloro-4,5-dimethyl-17-{3-[(naphthalen-1-yl)oxy]propyl}-5,7,9,14-tetrahydropyrazino-[2′,3′:3,4]pyrazolo[4′,3′:9,10][1,6]oxazacycloundecino[8,7,6-hi]indole-16-carboxylic Acid] | – | 2.7e-06 M | 8.2e-06 M | 9.56 µM | – | – | – | – | – | – | –
2.2e-05 M | > 3.3e-05 M | 1e-05 M | 1.45e-05 M | 2.85e-05 M | Cc1nn(C)c2c1-c1c(F)ccc3c(CCCOc4ccc(F)c5ccccc45)c(C(=O)O)n(c13)Cc1ccccc1COC2 (racemic) [Example 82, (rac)-15-Fluoro-1-(3-((4-fluoronaphthalen-1-yl)oxy)propyl)-12,14-dimethyl-4,9,11,12-tetrahydrobenzo[3,4]pyrazolo[4′,3′:9,10][1]oxa[6]azacycloundecino[8,7,6-hi]indole-2-carboxylic Acid] | 1.2e-08 M | 2.4e-05 M | > 3.3e-05 M | – | – | – | – | – | – | – | –
1.5e-05 M | > 3.3e-05 M | > 3.3e-05 M | 6.15e-06 M | > 3.3e-05 M | CCc1c2c(nn1C)COCc1ccccc1Cn1c(C(=O)O)c(CCCOC3CCCc4ccccc43)c3ccc(F)c-2c31 (racemic) [Example 92, (rac)-14-Ethyl-15-fluoro-13-methyl-1-(3-((1,2,3,4-tetrahydronaphthalen-1-yl)oxy)propyl)-4,9,11,13-tetrahydrobenzo[3,4]pyrazolo[4′,3′:9,10][1]oxa[6]azacycloundecino[8,7,6-hi]indole-2-carboxylic Acid] | 1.8e-08 M | 8.1e-06 M | > 3.3e-05 M | – | – | – | – | – | – | – | –
